Molecules are shown by their SMILES.

The subject of data set [1] is P. falciparum 3D7 strain. On the set-up: method as in PMID 30411030. The note with it: ref [11], cited from earlier work.
Data set [2] concerns normal dermal fibroblasts. Also on record: method as in PMID 30411030. The note with it: ref [11]; cited from earlier work.
Data set [3] relates to P. falciparum RKL-9 strain. Also on record: method as in PMID 30411030. Particulars: ref [11], cited from earlier work.
In data set [4] the test system is P. falciparum W2 (CQ-resistant) strain. Nature of the data set: P. falciparum drug susceptibility assay (pLDH), W2 strain. Particulars: Plasmodium falciparum, W2, 72 h, read-out: P. falciparum IC50 W2. The data set is classed as cell-based, Plasmodium falciparum. As for the experimental part: Plasmodium falciparum cultures were established according to the method of Trager and Jensen, with slight modifications. The CQ-susceptible strain, D10, and the CQ-resistant strain, W2, were maintained in human type A-positive red blood cells at 5% hematocrit in RPMI 1640 medium with the addition of 1% AlbuMax, 0.01% hypoxanthine, 20 mM Hepes, and 2 mM glutamine. Cultures were maintained at 37 °C in a gas mixture consisting of 1% O2, 5% CO2, and 94% N2. Compounds were dissolved in DMSO and diluted with medium to achieve the required concentrations (final DMSO concentration <1%, which is non-toxic to the parasite). Drugs were introduced into 96-well flat-bottomed microplates and serial dilutions made. Asynchronous cultures with parasitaemia of 1–1.5% and 1% final hematocrit were aliquoted into the plates and incubated for 72 h at 37 °C. Parasite growth was determined spectrophotometrically (OD650) by measuring the activity of parasite lactate dehydrogenase (pLDH), according to a modified version of the method of Makler, in both control and drug-treated cultures.

Data set [5] concerns P. falciparum D10 (CQ-sensitive) strain. Description: P. falciparum drug susceptibility assay (pLDH), D10 strain. The data set is classed as cell-based. The note with it: Plasmodium falciparum, D10, 72 h, read-out: P. falciparum IC50 D10. On the procedure:
Plasmodium falciparum cultures were established according to the method of Trager and Jensen, with slight modifications. […] Drugs were introduced into 96-well flat-bottomed microplates and serial dilutions made. […] Parasite growth was determined spectrophotometrically (OD650) by measuring the activity of parasite lactate dehydrogenase (pLDH), according to a modified version of the method of Makler, in both control and drug-treated cultures.

The subject of data set [6] is human microvascular endothelial (HMEC-1) cell line. The note with it: read-out: IC50 on HMEC-1 cell line, ref [21]; cited from earlier work.

What is called IC50 is the concentration needed to halve the response being measured. As for `COC(=O)[C@@H]1Cc2c([nH]c3ccccc23)[C@@H](c2ccc3c(c2)OCO3)N1` [Compound 9a], the IC50 in data set [1] (3D7 strain) and in data set [3] (RKL-9 strain) was < 2860 nM in each case. In data set [1] (against 3D7 strain), the “selectivity index 3D7” value is on record as > 10. Moreover, the “toxicity to normal dermal fibroblasts” value in data set [2] is on record as “nontoxic”. In data set [3] (against RKL-9 strain), the “selectivity index RKL-9” value was > 10.

As to `CCN(CC)CCCC(C)Nc1ccnc2cc(Cl)ccc12` (centres unmarked) [CQ, chloroquine, reference compound], the IC50 was 270 ± 70 nM in data set [4], 17 ± 6 nM in data set [5] and > 38000 nM in data set [6].

These data come from paper PMC8707145, “Synthesis, Molecular Docking and Antiplasmodial Activities of New Tetrahydro-β-Carbolines” (International Journal of Molecular Sciences, 2021).
